“And” between values parts separate entries of the source, which are not always exact repeats. Equal values may be shown once. Read-outs that look alike come from different tables or passages of the source.

Data set [1] has as its system phenylbenzoquinone (PBQ)-induced writhing. As to the kind of experiment: phenylbenzoquinone-induced writhing test, subcutaneous administration. Type of data set: in vivo, mice. As to the method:
The procedure is a modification of the method described by Siegmund and Cadmus, Proc. Soc. Exp. Biol. Med., 95, 729-731 (1957), which is used to evaluate both narcotic and non-narcotic analgesics. […] Laboratory mice of either sex, weighing 18-27 g. are used in groups of ten as test subjects. The test compound is administered first in an initial dose determined by the potency of the class of compounds and the route of administration. The test is run first in one group of mice at a relatively high dose to establish significant analgesic activity [see (1) in Table I]. When analgesic activity is observed in four or more of this group, a second test is run on at least three groups of mice to determine the most appropriate dose/time response to use in the subsequent dose response test [see (2) in Table I]. Finally, the ED50 dose is determined by administering different doses to several groups of mice and observing their reaction during the time interval established by the dose/time test [see (3)-(9) in Table I]. Note that the time interval is designated by the median time of the chosen response observation period (e.g. 15, 30, or 45 minutes). In testing each group of mice according to the above protocol, all mice in the group first are administered the selected dose of the test compound solution. Five minutes prior to the observation period (viz. at 5, 20, or 35 minutes after subcutaneous administration of the test compound of at 20, 50, or 80 minutes after oral administration of the test compound) all mice in the group receive 0.25 ml., intraperitoneally, of the writhing agonist (i.e. 0.02% solution of PBQ). At the chosen time interval, the group of mice is observed for a period of ten minutes for writhing.
Background: An intraperitoneal irritant provokes the stretching counted in writhing tests.

Data set [2] has as its system rat brain opiate receptors. In words: in vitro opiate receptor assay, 3H-naloxone displacement in rat brain homogenate. Type of data set: binding. Particulars: relative to morphine = 1.0.
Method: In this procedure, a fasted male Charles River CD rat, 190-290 g., is killed with a guillotine after carbon-dioxideanesthesia, and the brain is rapidly removed. After the cerebellum is excised, the brain is homogenized in 100 vol. (usually 150 ml.) iced 0.05 M Trizma buffer (pH 7.4 at 25°) 0.1 M in sodium chloride in a Brinkman Polytron for 1 min. at setting 3. The homogenate is centrifuged at 49,500 g for 15 min. (Sorvall SS-34 rotor at 19,500 rpm) in 50 ml. propylene tubes. The supernatant is decanted, and the pellets are resuspended in iced buffer to the original volume by use of a motor driven pestle tissue grinder. The homogenate is centrifuged again and resuspended in 10 ml. iced buffer.
Homogenates and samples ae equilibrated at room temperature for 5 minutes before adding 0.05 ml. 3 H-naloxone solution to give a total volume of 0.50 ml. for all tubes.
The assay tubes are hand-shaken every 15 min. for an incubation time of 60 min. at 0° C. The contents are filtered under reduced pressure through Whatman glass-fiber circles (GF/B, 2.4 cm. dia.). […] The vials are hand-shaken immediately, after 30 min., at the end of the day, stored overnight, hand-shaken, and radioactivity is determined by liquid-sintillation spectrometry.
The assay is calculated as follows: […]
A further data set deals with tail-flick. Particulars: rat, cited from earlier work.
The conditions of data set [3]: oral administration; cited from earlier work.
For the next data set, the system named is opiate receptor. To be noted: electrically stimulated guinea pig ileum; cited from earlier work.
The conditions of data set [4]: intracerebroventricularly, intravenously, or subcutaneously; cited from earlier work.
The conditions of data set [5]: rat lateral brain ventricle; cited from earlier work.
For data set [6] the following is noted: e.g. subcutaneously or intravenously; cited from earlier work.
The conditions of data set [7]: rat blood plasma; cited from earlier work.
For data set [8] the following is noted: human blood plasma; cited from earlier work.

As usually defined, the ED50 is the dose that gives a 50% effect, or the effect in half of the subjects. A lower ED50 goes with an effect at a small dose. With `CN[C@@H](Cc1ccc(O)cc1)C(=O)N[C@H](CCSC)C(=O)NCC(=O)N(C)[C@@H](Cc1ccccc1)C(=O)N[C@H](CO)C(N)=O` [Example 1, N-Methyl-Tyrosyl-D-Methionyl-Glycyl-N-Methyl-Phenylalanyl-D-Serinamide . Acetate], the “No. Analgesic / Total No. Tested” value in data set [1] ((1) 10.0 mg/kg subcutaneous, 15 minutes, 10 mg/kg) was 10/10 and 10 of 10; in data set [1] ((2) dose/time test, 0.1 mg/kg subcutaneous, 15 minutes), 4/10; in data set [1] ((2) dose/time test, 0.1 mg/kg subcutaneous, 30 minutes) it was 3/10; in data set [1] ((2) dose/time test, 0.1 mg/kg subcutaneous, 45 minutes), 1/10; in data set [1] ((3) 0.032 mg/kg subcutaneous, 15 minutes), 0/10; in data set [1] ((4) 0.056 mg/kg subcutaneous, 15 minutes), 3/10. In addition, the “No. Analgesic / Total No. Tested” value is 2/10 in [1] ((5) dose response test, 0.1 mg/kg subcutaneous, 15 minutes); 6/10 in [1] ((6) 0.178 mg/kg subcutaneous, 15 minutes); 5/10 in data set [1] ((7) 0.316 mg/kg subcutaneous, 15 minutes); 4/10 in data set [1] ((8) 0.56 mg/kg subcutaneous, 15 minutes); 8/10 and 8 of 10 in data set [1] ((9) 1.00 mg/kg subcutaneous, 15 minutes, 1 mg/kg). In [1] (subcutaneous, mice, complete inhibition of PBQ-induced writhing, 15 minutes), the median effective dose (ED50) is 0.33 mg/kg. Besides, the figures for the “Relative Displacement Potency” value in data set [2] and in data set [2] (listed as Example I) were 14 and “in excess of ten times”, respectively.

Take `CN1CC[C@]23c4c5ccc(O)c4O[C@H]2[C@@H](O)C=C[C@H]3[C@H]1C5` [Morphine]: the duration of analgesia result with tail-flick (morphine comparison) was “an hour or more”.

As to “(D-Ala^2, Me-Phe^4, Met(0)^5)-enkephalin”, in [3], the analgesic activity entry is “elicited analgesic activity”.

Regarding (D-Ala^2, Met(O)^5)-enkephalin, the analgesic activity entry in data set [3] was “elicited analgesic activity”.

Regarding “(D-Met^2, Leu^5) enkephalin, methyl ester”, in the data set on opiate receptor, the “opiate receptor agonist activity” value is “strong opiate receptor agonist activity”.

(D-Met^2, Pro^5)-enkephalin amide: the analgesic activity entry in data set [4] is “elicits analgesic activity”.

(Ser^5)-enkephalin: in data set [5], the analgesic activity entry is listed as “eliciting analgesic activity”.

In the case of “H--Tyr--Gly--Gly--Phe--Leu--OH [Leu-enkephalin]”, in the data set with tail-flick (intraventricular), the “dose producing analgesia equivalent to morphine” value is 10-20 times that of morphine and the duration of analgesia was 10 to 12 min. Further, the “activity when administered systemically” value in data set [6] was “virtually inactive”.

Consider “H--Tyr--Gly--Gly--Phe--Met--OH [Met-enkephalin]”, for which, in the data set with tail-flick (intraventricular), the “dose producing analgesia equivalent to morphine” value was 10-20 times that of morphine and the duration of analgesia is 10 to 12 min. For the same compound, the “activity when administered systemically” value in data set [6] is “virtually inactive”. Further, the “breakdown in blood plasma” value in [7] is recorded as “broken down”. In addition, the “breakdown in blood plasma” value in [8] was “broken down”.

(Values after patent US4231925A, “Pentapeptides with analgesic activity on peripheral administration” (American Home Products Corporation, priority 1979, dated 1980).)
